# Assay results taken from PubChem BioAssay (NCI).
#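 Results reflect a 48-hour exposure of cells in 96-well plates to compound at five concentrations. GI50 marks 50% less growth. TGI marks complete inhibition of growth.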 *1 amine or outer side, *2 acyl side, *3 side chain or, on linkers, in order; H or OH if unused. Where a SMILES comes first, the peptide text is derived from it. Bridges are numbered along the chain shown (N, C = ends). [ ]: non-standard residue; d: D form. The star is where a group is joined. ξ: configuration not given here. ξOrn(4,5-diOH) = O=C(C(CC(O)C(O)N[*:3])N[*:1])[*:2]; ξhTyr(βξ-OH,γξ-OH) = NC(C(=O)O)C(O)C(O)c1ccc(O)cc1; ξPro(3ξ-OH,4ξ-Me) = CC1CNC(C(=O)O)C1O; X22 = CCCCC/C=C/C/C=C\CCCCCCCC(=O)*; Hyp = O=C(O)[CH]1C[CH](O)CN1
# What was measured:
# Experiment in all cases: NCI anticancer screen, dose series, 48 h
# 786-0 renal = test system: 786-0 renal
# A498 renal = test system: A498 renal
# CCRF-CEM leukemia = test system: CCRF-CEM leukemia
# COLO 205 colon = test system: COLO 205 colon
# DU-145 prostate = test system: DU-145 prostate
# HCT-116 colon = test system: HCT-116 colon
# HT29 colon = test system: HT29 colon
# K-562 leukemia = test system: K-562 leukemia
# KM12 colon = test system: KM12 colon
# M14 melanoma = test system: M14 melanoma
# MOLT-4 leukemia = test system: MOLT-4 leukemia
# OVCAR-3 ovarian = test system: OVCAR-3 ovarian
# OVCAR-4 ovarian = test system: OVCAR-4 ovarian
# OVCAR-5 ovarian = test system: OVCAR-5 ovarian
# SF-268 CNS = test system: SF-268 CNS
# SK-MEL-2 melanoma = test system: SK-MEL-2 melanoma
# SK-OV-3 ovarian = test system: SK-OV-3 ovarian
# SR leukemia = test system: SR leukemia
# SW-620 colon = test system: SW-620 colon
# T-47D breast = test system: T-47D breast
# TK-10 renal = test system: TK-10 renal
# U251 CNS = test system: U251 CNS
# UACC-62 melanoma = test system: UACC-62 melanoma
# BT-549 breast = test system: BT-549 breast
# HOP-92 NSCLC = test system: HOP-92 NSCLC
# NCI-H23 lung = test system: NCI-H23 lung
# UACC-257 melanoma = test system: UACC-257 melanoma
# A549 NSCLC = test system: A549 NSCLC
# ACHN renal = test system: ACHN renal
# CAKI-1 renal = test system: CAKI-1 renal
# HCC-2998 colon = test system: HCC-2998 colon
# HCT-15 colon = test system: HCT-15 colon
# HS 578T breast = test system: HS 578T breast
# IGROV1 ovarian = test system: IGROV1 ovarian
# LOX IMVI melanoma = test system: LOX IMVI melanoma
# MALME-3M melanoma = test system: MALME-3M melanoma
# MCF7 breast = test system: MCF7 breast
# MDA-MB-231 breast = test system: MDA-MB-231 breast
# NCI-H226 lung = test system: NCI-H226 lung
# NCI-H460 lung = test system: NCI-H460 lung
# NCI/ADR-RES ovarian = test system: NCI/ADR-RES ovarian
# OVCAR-8 ovarian = test system: OVCAR-8 ovarian
# PC-3 prostate = test system: PC-3 prostate
# RPMI-8226 leukemia = test system: RPMI-8226 leukemia
# RXF 393 renal = test system: RXF 393 renal
# SF-295 CNS = test system: SF-295 CNS
# SF-539 CNS = test system: SF-539 CNS
# SK-MEL-28 melanoma = test system: SK-MEL-28 melanoma
# SK-MEL-5 melanoma = test system: SK-MEL-5 melanoma
# SN12C renal = test system: SN12C renal
# SNB-19 CNS = test system: SNB-19 CNS
# SNB-75 CNS = test system: SNB-75 CNS
# UO-31 renal = test system: UO-31 renal
structure (smiles),measurement,setting,value
O=C1Nc2ccc(Cl)cc2/C1=N/c1nc(-c2ccc(Cl)cc2)cs1,GI50,786-0 renal,1460 nM
same,TGI,786-0 renal,3700 nM
same,GI50,A498 renal,1800 nM
same,TGI,A498 renal,4980 nM
same,GI50,CCRF-CEM leukemia,2280 nM
same,TGI,CCRF-CEM leukemia,> 100000 nM
same,GI50,COLO 205 colon,1690 nM
same,TGI,COLO 205 colon,4180 nM
same,GI50,DU-145 prostate,1420 nM
same,TGI,DU-145 prostate,2790 nM
same,GI50,HCT-116 colon,1300 nM
same,TGI,HCT-116 colon,2710 nM
same,GI50,HT29 colon,1870 nM
same,TGI,HT29 colon,5340 nM
same,GI50,K-562 leukemia,1600 nM
same,TGI,K-562 leukemia,> 100000 nM
same,GI50,KM12 colon,1370 nM
same,TGI,KM12 colon,4550 nM
same,GI50,M14 melanoma,1400 nM
same,TGI,M14 melanoma,2820 nM
same,GI50,MOLT-4 leukemia,1610 nM
same,TGI,MOLT-4 leukemia,> 100000 nM
same,GI50,OVCAR-3 ovarian,1300 nM
same,TGI,OVCAR-3 ovarian,4560 nM
same,GI50,OVCAR-4 ovarian,1390 nM
same,TGI,OVCAR-4 ovarian,> 100000 nM
same,GI50,OVCAR-5 ovarian,1910 nM
same,TGI,OVCAR-5 ovarian,4430 nM
same,GI50,SF-268 CNS,1290 nM
same,TGI,SF-268 CNS,4410 nM
same,GI50,SK-MEL-2 melanoma,1930 nM
same,TGI,SK-MEL-2 melanoma,4850 nM
same,GI50,SK-OV-3 ovarian,1500 nM
same,TGI,SK-OV-3 ovarian,4540 nM
same,GI50,SR leukemia,2740 nM
same,TGI,SR leukemia,> 100000 nM
same,GI50,SW-620 colon,1670 nM
same,TGI,SW-620 colon,4290 nM
same,GI50,T-47D breast,938 nM
same,TGI,T-47D breast,5800 nM
same,GI50,TK-10 renal,2880 nM
same,TGI,TK-10 renal,6130 nM
same,GI50,U251 CNS,1700 nM
same,TGI,U251 CNS,4650 nM
same,GI50,UACC-62 melanoma,1540 nM
same,TGI,UACC-62 melanoma,4100 nM
"CCCCC/C=C/C/C=C\CCCCCCCC(=O)NC1CC(O)C(O)NC(=O)C2C(O)C(C)CN2C(=O)C(C(C)O)NC(=O)C(C(O)C(O)c2ccc(O)cc2)NC(=O)C2CC(O)CN2C(=O)C(C(C)O)NC1=O (stereo not drawn) (X22-[ξOrn(4,5-diOH)]T[Hyp][ξhTyr(βξ-OH,γξ-OH)]T[ξPro(3ξ-OH,4ξ-Me)]; lactam 1-C; configuration not given here)",TGI,BT-549 breast,> 100000 nM
same,TGI,HOP-92 NSCLC,> 100000 nM
same,TGI,NCI-H23 lung,> 100000 nM
same,TGI,UACC-257 melanoma,> 100000 nM
COc1cc2c(Oc3ccc(-c4cnc(Nc5ccc(F)cc5)n(C)c4=O)cc3F)ccnc2cc1OCCCN1CCOCC1,GI50,786-0 renal,1540 nM
same,TGI,786-0 renal,3100 nM
same,GI50,A498 renal,950 nM
same,TGI,A498 renal,2460 nM
same,GI50,A549 NSCLC,1660 nM
same,TGI,A549 NSCLC,3420 nM
same,GI50,ACHN renal,864 nM
same,TGI,ACHN renal,2150 nM
same,GI50,BT-549 breast,1860 nM
same,TGI,BT-549 breast,3490 nM
same,GI50,CAKI-1 renal,1050 nM
same,TGI,CAKI-1 renal,2460 nM
same,GI50,CCRF-CEM leukemia,3040 nM
same,TGI,CCRF-CEM leukemia,> 100000 nM
same,GI50,DU-145 prostate,1560 nM
same,TGI,DU-145 prostate,3170 nM
same,GI50,HCC-2998 colon,1480 nM
same,TGI,HCC-2998 colon,2940 nM
same,GI50,HCT-116 colon,1190 nM
same,TGI,HCT-116 colon,2510 nM
same,GI50,HCT-15 colon,1180 nM
same,TGI,HCT-15 colon,2750 nM
same,GI50,HOP-92 NSCLC,83 nM
same,TGI,HOP-92 NSCLC,1010 nM
same,GI50,HS 578T breast,933 nM
same,TGI,HS 578T breast,3400 nM
same,GI50,HT29 colon,311 nM
same,TGI,HT29 colon,1640 nM
same,GI50,IGROV1 ovarian,646 nM
same,TGI,IGROV1 ovarian,2330 nM
same,GI50,LOX IMVI melanoma,1230 nM
same,TGI,LOX IMVI melanoma,2550 nM
same,GI50,M14 melanoma,442 nM
same,TGI,M14 melanoma,1820 nM
same,GI50,MALME-3M melanoma,291 nM
same,TGI,MALME-3M melanoma,1410 nM
same,GI50,MCF7 breast,783 nM
same,TGI,MCF7 breast,2470 nM
same,GI50,MDA-MB-231 breast,1400 nM
same,TGI,MDA-MB-231 breast,2930 nM
same,GI50,NCI-H226 lung,1160 nM
same,TGI,NCI-H226 lung,8150 nM
same,GI50,NCI-H23 lung,1150 nM
same,TGI,NCI-H23 lung,2750 nM
same,GI50,NCI-H460 lung,1510 nM
same,TGI,NCI-H460 lung,3220 nM
same,GI50,NCI/ADR-RES ovarian,1940 nM
same,TGI,NCI/ADR-RES ovarian,6750 nM
same,GI50,OVCAR-3 ovarian,1640 nM
same,TGI,OVCAR-3 ovarian,3150 nM
same,GI50,OVCAR-4 ovarian,1740 nM
same,TGI,OVCAR-4 ovarian,7490 nM
same,GI50,OVCAR-5 ovarian,1040 nM
same,TGI,OVCAR-5 ovarian,2450 nM
same,GI50,OVCAR-8 ovarian,1870 nM
same,TGI,OVCAR-8 ovarian,4720 nM
same,GI50,PC-3 prostate,2050 nM
same,TGI,PC-3 prostate,6390 nM
same,GI50,RPMI-8226 leukemia,1840 nM
same,TGI,RPMI-8226 leukemia,4710 nM
same,GI50,RXF 393 renal,759 nM
same,TGI,RXF 393 renal,2040 nM
same,GI50,SF-268 CNS,1460 nM
same,TGI,SF-268 CNS,3380 nM
same,GI50,SF-295 CNS,663 nM
same,TGI,SF-295 CNS,1990 nM
same,GI50,SF-539 CNS,464 nM
same,TGI,SF-539 CNS,1620 nM
same,GI50,SK-MEL-2 melanoma,1530 nM
same,TGI,SK-MEL-2 melanoma,3190 nM
same,GI50,SK-MEL-28 melanoma,970 nM
same,TGI,SK-MEL-28 melanoma,2280 nM
same,GI50,SK-MEL-5 melanoma,1450 nM
same,TGI,SK-MEL-5 melanoma,2770 nM
same,GI50,SK-OV-3 ovarian,1840 nM
same,TGI,SK-OV-3 ovarian,3390 nM
same,GI50,SN12C renal,528 nM
same,TGI,SN12C renal,2270 nM
same,GI50,SNB-19 CNS,2030 nM
same,TGI,SNB-19 CNS,4520 nM
same,GI50,SNB-75 CNS,610 nM
same,TGI,SNB-75 CNS,1910 nM
same,GI50,TK-10 renal,1940 nM
same,TGI,TK-10 renal,3920 nM
same,GI50,U251 CNS,1660 nM
same,TGI,U251 CNS,3200 nM
same,GI50,UACC-257 melanoma,1100 nM
same,TGI,UACC-257 melanoma,2600 nM
same,GI50,UO-31 renal,906 nM
same,TGI,UO-31 renal,2210 nM
